Assay results: ChEMBL document CHEMBL1201862, “PubChem BioAssay data set” (2004)
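Test compounds were applied to cells in 96-well plates for 48 hours at 5 doses. GI50 = concentration required for 50% inhibition of growth.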 Activity calls are given as the source filed them. Rule as the data show it: active = GI50 up to about 1.1 µM and inactive = higher.

What was measured:
Assay in all cases: NCI tumour cell line growth inhibition, 48 h
CCRF-CEM = tested on: CCRF-CEM
COLO 205 = tested on: COLO 205
SF-539 = tested on: SF-539
OVCAR-8 = tested on: OVCAR-8
A549 = tested on: A549
SK-MEL-2 = tested on: SK-MEL-2
DMS-114 = tested on: DMS-114
KM-20L2 = tested on: KM-20L2
HOP-62 = tested on: HOP-62
HOP-92 = tested on: HOP-92
LXFL 529 = tested on: LXFL 529
NCI-H522 = tested on: NCI-H522
SF-295 = tested on: SF-295
NCI-H460 = tested on: NCI-H460
NCI-H226 = tested on: NCI-H226
EKVX = tested on: EKVX
HCC 2998 = tested on: HCC 2998
SN12C = tested on: SN12C
SF-268 = tested on: SF-268
SK-MEL-28 = tested on: SK-MEL-28

Measured: GI50

CC(/C=C/c1ncccc1OCCCCCC(=O)O)=N\NC1=NCCN1
inactive: CCRF-CEM > 100 µM | COLO 205 > 100 µM | SF-539 > 100 µM | OVCAR-8 > 100 µM | A549 > 100 µM | SK-MEL-2 > 100 µM | DMS-114 > 100 µM | KM-20L2 > 100 µM | HOP-62 > 100 µM | HOP-92 > 100 µM | LXFL 529 > 100 µM | NCI-H522 > 100 µM | SF-295 > 100 µM | NCI-H460 > 100 µM | NCI-H226 > 100 µM | EKVX > 100 µM | HCC 2998 > 100 µM | SN12C > 100 µM | SF-268 > 100 µM | SK-MEL-28 > 100 µM
